# Literature values as cited in patent US9056184B2, “Methods for renal denervation” (priority 2010, dated 2015).
# Columns and labels:
# [1] = molecular target: tetrodotoxin-sensitive voltage-gated sodium channel (TTX-s Na+ channel); conditions: read-out: binding affinity
# [2] = molecular target: tetrodotoxin-resistant voltage-gated sodium channel (TTX-r Na+ channel)
# CYP3A4 = conditions: in vivo
# [3] = after initiation of therapy
# [4] = in vivo
compound,measurement,setting,value
NC1=N[C@H](O)[C@H]2[C@H]3O[C@]4(O)O[C@@H]([C@@H](O)[C@@]2(N1)[C@@H]4O)[C@]3(O)CO [Tetrodotoxin],Kd,[1],5 to 15 nM
same,binding affinity,[2],low micromolar
"NC(=O)N1c2ccccc2C=Cc2ccccc21 [carbamazepine, Carbamazepine]",time for auto-induction to reach a plateau,CYP3A4,5 to 7 days
same,time to stable carbamazepine concentrations,[3],2-3 weeks
[Li] [lithium],toxic amounts,[4],> 1.5 mmol/L
